# From patent publication US7781565B2 (priority 2006, dated 2010)
# Test system: NCI-60 cell lines
# Format: cell-based, human
Substance,Cell Line the peptide is associated with (peptide recovered from phage library selection on this NCI-60 cell line),Cell Line with which the peptide (and its tripeptide motif) is associated,Cell Line (NCI-60 cell line the peptide is associated with),Cell Line (NCI-60 cell line the peptide and its motif are associated with)
SGARLRS,T-47D Breast,,,
SGGAVHF,,SR Leukemia,,
SGGDGSV,,,SNB-75 CNS,
SGGGGLG,,,SF-268 CNS,
SGGLAVA,,,,UACC 257 Melanoma
SGGLHEG,,SR Leukemia,,
SGGLVLT,,Hop-92-Lung,,
SGGRFVP,MDA-MB-231 Breast,,,
SGGSVGF,MDA-MB-231 Breast,,,
SGHGVSA,,H23-Lung,,
SGIGSGG,,Hop-92-Lung,,
SGLVAMV,,,SW620-Colon,
SGPAGSF,,,,OVCAR-4 Ovarian
SGPGRLP,,,,M14 Melanoma
SGRLWVG,RXF393 Renal,,,
SGRVFRF,HS 578 T Breast,,,
SGSGCVF,,,,PC3 Prostate
SGSRVSL,,HL-60-Leukemia,,
SGSSVRY,,,SNB-75 CNS,
SGSVNRG,,RPMI-8226-Leukemia,,
SGSVVQR,,,LOX-IMVI Melanoma,
SGVGGRY,,,,UACC 257 Melanoma
SGVGSSL,,EKVX-Lung,,
SGVRLTG,,,HT-29 Colon,
SGVRPVI,,,,SK-MEL-2 Melanoma

Substance,Cell Line the peptide is associated with (peptide recovered from phage library selection on this NCI-60 cell line),Cell Line with which the peptide (and its tripeptide motif) is associated,Cell Line (NCI-60 cell line the peptide is associated with),Cell Line (NCI-60 cell line the peptide and its motif are associated with)
SGVSGLS,,EKVX-Lung,,
SGVSISC,,,,IGROV1 Ovarian
SGVSNPG,MDA-MB-231 Breast,,,
SGVSRGQ,,Hop-92-Lung,,
SGVSVEG,,Hop-62-Lung,,
SGWFAGS,,,,SK-OV-3-3 Ovarian
SHCGPSN,,,SF-295 CNS,
SHHRSSI,SN12C Renal,,,
SHRSSTG,T-47D Breast,,,
SHRVSDS,,K-562-Leukemia,,
SHTAGGG,,,,PC3 Prostate
SIGPSTN,,H460-Lung,,
SITRGGL,,,,DU-145 Prostate
SKAVLRS,,,,SK-MEL-2 Melanoma
SKYNLRS,,,HT-29 Colon,
SKYRLRS,,RPMI-8226-Leukemia,,
SLGGRTF,,,SNB-75 CNS,
SLGLGGL,,,,OVCAR-5 Ovarian
SLGLRNQ,,CCRF-CEM Leukemia,,
SLGSVGS,,EKVX-Lung,,
SLLRRLE,TK-10 Renal,,,
SLRGSEG,,Hop-92-Lung,,
SLRGVRV,,,,UACC62 Melanoma
SLRSDGA,,,HCT-15 Colon,
SLRSGIV,,EKVX-Lung,,

Substance,Cell Line the peptide is associated with (peptide recovered from phage library selection on this NCI-60 cell line),Cell Line with which the peptide (and its tripeptide motif) is associated,Cell Line (NCI-60 cell line the peptide is associated with),Cell Line (NCI-60 cell line the peptide and its motif are associated with)
SLTRAVR,,Hop-92-Lung,,
SLVSERA,HS 578 T Breast,,,
SLVSPRT,,,,OVCAR-5 Ovarian
SLYGLRW,,,,M14 Melanoma
SLYRGRL,T-47D Breast,,,
SMRGVLS,BT-549 Breast,,,
SNARGPR,,K-562-Leukemia,,
SNFYGSS,,,,M14 Melanoma
SNGLRVV,ACHN Renal,,,
SNHTASL,,,SF-295 CNS,
SNPGSGS,,,,UACC62 Melanoma
SPGRVAD,,,,IGROV1 Ovarian
SPGVSGR,,,SW620-Colon,
SPTGGRR,,,LOX-IMVI Melanoma,
SQFGPSF,,,,SK-OV-3-3 Ovarian
SQSGGRH,,Molt-4-Leukemia,,
SRASDVT,,,SW620-Colon,
SRASGHG,,,HT-29 Colon,
SRAVIDM,,CCRF-CEM Leukemia,,
SRAVIRL,,,,OVCAR-5 Ovarian
SRFGPSV,,H322-Lung,,
SRFRVSI,,CCRF-CEM Leukemia,,
SRGSTAG,,H322-Lung,,
SRGSYGS,MDA-MB-435-Breast,,,
SRHGLVR,,,HCT-15 Colon,

Substance,Cell Line the peptide is associated with (peptide recovered from phage library selection on this NCI-60 cell line),Cell Line with which the peptide (and its tripeptide motif) is associated,Cell Line (NCI-60 cell line the peptide is associated with),Cell Line (NCI-60 cell line the peptide and its motif are associated with)
SRKGLRS,,,,786-0 Renal
SRLRAGS,T-47D Breast,,,
SRLSYCN,,,,OVCAR-4 Ovarian
SRLSYRA,,,,786-0 Renal
SRLSYRG,,RPMI-8226-Leukemia,,
SRLSYRS,,A549-Lung,,
SRLSYRT,TK-10 Renal,,,
SRLSYWQ,,,LOX-IMVI Melanoma,
SRLSYYA,,,KM-12C Colon,
SRSCGGL,,,LOX-IMVI Melanoma,
SRSGRLN,,,,SK-MEL-2 Melanoma
SRVSFHE,,,MALME-3M Melanoma,
SRVSNPS,,,,SK-MEL-2 Melanoma
SRYGLRR,,RPMI-8226-Leukemia,,
SRYGVLV,,EKVX-Lung,,
SRYSLRS,,A549-Lung,,
SRYTLRS,,,,IGROV1 Ovarian
SRYWLRS,,H522-Lung,,
SSGGRSS,,,MALME-3M Melanoma,
SSGGVLG,,H460-Lung,,
SSGPRSS,,Hop-62-Lung,,
SSGSSNG,,K-562-Leukemia,,
